Test results from patent US11345666B2, “Phenyl and pyridinyl substituted imidazoles as modulators of RORγT” (Janssen Pharmaceutica NV, priority 2018, dated 2022).
pIC50, pKd: −log10 of the molar value. Read-outs that look alike come from different tables or passages of the source.

Tests used:
[1] = target: human RORγt ligand binding domain (RORγt LBD) (Homo sapiens (Human), UniProt P51449); assay: RORγt ThermoFluor assay
Text: ThermoFluor® is a fluorescence based assay that estimates ligand binding affinities by measuring the effect of a ligand on protein thermal stability (Pantoliano, M. W., Petrella, E. C., Kwasnoski, J. D., Lobanov, V. S., Myslik, J., Graf, E., Carver, T., Asel, E., Springer, B. A., Lane, P., and Salemme, F. R. (2001) High-density miniaturized thermal shift assays as a general strategy for drug discovery. J Biomol Screen 6, 429-40, and Matulis, D., Kranz, J. K., Salemme, F. R., and Todd, M. J. (2005) Thermodynamic stability of carbonic anhydrase: measurements of binding affinity and stoichiometry using ThermoFluor. Biochemistry 44, 5258-66). This approach is applicable to a wide variety of systems, and rigorous in theoretical interpretation through quantitation of equilibrium binding constants (KD).
The shift in the melting point described as a ΔTm is proportional to the concentration and affinity of the ligand.
RORγt ThermoFluor® Assay Construct
Nucleotides 850-1635 (SEQ ID NO:2) coding for the wild type human RORγt ligand binding domain (RORγt LBD) were cloned into the pHIS 1 vector, a modified pET E. coli expression vector (Accelagen, San Diego), containing an in-frame N-terminal His-tag and a TurboTEV protease cleavage site (ENLYFQG, SEQ ID NO:3) upstream of the cloned insert sequence. The amino acid sequence for the RORγt construct used in the Thermofluor® assay is shown as SEQ ID NO:4.
ThermoFluor® experiments were carried out using instruments owned by Janssen Research and Development, L.L.C. through its acquisition of 3-Dimensional Pharmaceuticals, Inc. 1,8-ANS (Invitrogen) was used as a fluorescent dye. Protein and compound solutions are dispensed into black 384-well polypropylene PCR microplates (Abgene) and overlayed with silicone oil (1 μL, Fluka, type DC 200) to prevent evaporation.
Bar-coded assay plates are robotically loaded onto a thermostatically controlled PCR-type thermal block and then heated at a typical ramp-rate of 1° C./min for all experiments. Fluorescence was measured by continuous illumination with UV light (Hamamatsu LC6) supplied via fiber optic and filtered through a band-pass filter (380-400 nm; >6 OD cutoff). Fluorescence emission of the entire 384-well plate was detected by measuring light intensity using a CCD camera (Sensys, Roper Scientific) filtered to detect 500±25 nm, resulting in simultaneous and independent readings of all 384 wells. Images were collected at each temperature, and the sum of the pixel intensity in a given area of the assay plate was recorded versus temperature. Reference wells contained RORγt without compounds, and the assay conditions were as follows: • 0.065 mg/mL RORγt • 60 μM 1,8-ANS • 100 mM Hepes, pH 7.0 • 10 mM NaCl • 2.5 mM GSH • 0.002% Tween-20
Project compounds were arranged in a pre-dosed mother plate (Greiner Bio-one) wherein compounds are serially diluted in 100% DMSO by 1:2 from a high concentration of 10 mM over 12 columns within a series (column 12 is a reference well containing DMSO, no compound). The compounds were robotically dispensed directly into assay plates (1×=46 nL) using a Hummingbird capillary liquid handling instrument (Digilab). Following compound dispense, protein and dye in buffer was added to achieve the final assay volume of 3 μL, followed by 1 μL of silicone oil.
The binding affinity was estimated as described previously (Matulis, D., Kranz, J. K., Salemme, F. R., and Todd, M. J. (2005) Thermodynamic stability of carbonic anhydrase: measurements of binding affinity and stoichiometry using ThermoFluor®. Biochemistry 44, 5258-66) using the following thermodynamic parameters of protein unfolding: […]

full-length human RORγt = full-length human RORγt (Homo sapiens (Human), UniProt P51449); assay: RORγt (full-length human) reporter assay, conditions A or B; type: cell-based; conditions: for inhibition at 0.22 µM: 0.22 μM compound concentration (******); for pIC50: HEK293T cells, read-out: RORγt (FL) Reporter Assay A or B, IC50; for inhibition at 6 µM: read-out: RORγt (FL) Reporter Assay A or B, % inhibition @ 6 μM, 6 μM compound concentration
Text: RORγt (Full-Length Human) Reporter Assay:
Cells used in this assay were transiently co-transfected with three different plasmids, one expressing the GAL4-DNA binding domain (DBD)-RORγt fusion protein under control of a CMV promoter (NH2-Gal4-DBD:RORC—COOH in pCMV-BD, Stratagene #211342), and two reporter plasmids—the firefly luciferase reporter under control of a GAL4 promoter (pFR-Luc 2×GAL4) and Renilla luciferase reporter under control of CMV promoter (pRL-CMV, Promega #E2261). […] HEK293T cells were plated at 35,000 per well in 96-well plate in medium of DMEM with 10% FBS. After 18-22 hours incubation, the transfection was carried out by using a PEI solution with 170.5 ng total DNA/well (50 ng pCMV-BD-ROR plus 20 ng of pFR-Luc reporter and 0.5 ng of pRL-CMV reporter plus 100 ng Carrier DNA (Clontech #630440) for each well). 4-6 hours after transfection, cells were treated with compounds for overnight in the medium with final concentration of FBS 1.3% and DMSO 0.1%. After overnight (16 to 20 hours) incubation, media were removed and cells were lysed with […] Glo Lysis Buffer (Promega) for 10-15 minutes followed by 10 minute incubation with 50 μL Dual Glo reagent (Promega) at room temperature. Firefly luciferase luminescence was measured using a BMG Pherastar plate reader. To each well, 50 μL Stop and Glo reagent was added and incubated for 10 minutes at room temperature. Renilla luminescence was measured using a BMG Pherastar plate reader. To calculate the effect of compounds on RORγt activity, firefly values were normalized against values of DMSO only and values of reference compound at saturating concentration, then further normalized against Renilla signals. IC50s were generated by plotting final Renilla normalized data against compound concentration and percent inhibition was calculated against DMSO control.
Cells used in this assay were transiently co-transfected with three different plasmids, one expressing the GAL4-DNA binding domain (DBD)-RORγt fusion protein under control of a CMV promoter (NH2-Gal4-DBD:RORC—COOH in pCMV-BD, Stratagene #211342), and two reporter plasmids—the firefly luciferase reporter under control of a GAL4 promoter (pFR-Luc 2×GAL4) and Renilla luciferase reporter under control of CMV promoter (pRL-CMV, Promega #E2261). […] HEK293T cells were plated at 8750 cells per well in 384-well plate in medium of DMEM with 10% FBS. After 18-22 hours incubation, the transfection was carried out by using a PEI solution with 42.6 ng total DNA/well (12.5 ng pCMV-BD-ROR plus 5 ng of pFR-Luc reporter and 0.125 ng of pRL-CMV reporter plus 25 ng Carrier DNA (Clontech #630440) for each well). 4-6 hours after transfection, cells were treated with compounds for overnight in the medium with final concentration of FBS 1.3% and DMSO 0.1%. After overnight (16 to 20 hours) incubation, media were removed and cells were lysed with 20 μL Glo Lysis Buffer (Promega) for 10-15 minutes followed by 10 minute incubation with 20 μL Dual Glo reagent (Promega) at room temperature. Firefly luciferase luminescence was measured using a BMG Pherastar plate reader. To each well, 20 μL Stop and Glo reagent was added and incubated for 10 minutes at room temperature. Renilla luminescence was measured using a BMG Pherastar plate reader. To calculate the effect of compounds on RORγt activity, firefly values were normalized against values of DMSO only and values of reference compound at saturating concentration, then further normalized against Renilla signals. IC50s were generated by plotting final Renilla normalized data against compound concentration and percent inhibition was calculated against DMSO control.

[2] = read-out: RORγt (FL) Reporter Assay A or B, % inhibition

Chain of full-length human RORγt (P51449 other isoform, or with tags, fused parts or gaps): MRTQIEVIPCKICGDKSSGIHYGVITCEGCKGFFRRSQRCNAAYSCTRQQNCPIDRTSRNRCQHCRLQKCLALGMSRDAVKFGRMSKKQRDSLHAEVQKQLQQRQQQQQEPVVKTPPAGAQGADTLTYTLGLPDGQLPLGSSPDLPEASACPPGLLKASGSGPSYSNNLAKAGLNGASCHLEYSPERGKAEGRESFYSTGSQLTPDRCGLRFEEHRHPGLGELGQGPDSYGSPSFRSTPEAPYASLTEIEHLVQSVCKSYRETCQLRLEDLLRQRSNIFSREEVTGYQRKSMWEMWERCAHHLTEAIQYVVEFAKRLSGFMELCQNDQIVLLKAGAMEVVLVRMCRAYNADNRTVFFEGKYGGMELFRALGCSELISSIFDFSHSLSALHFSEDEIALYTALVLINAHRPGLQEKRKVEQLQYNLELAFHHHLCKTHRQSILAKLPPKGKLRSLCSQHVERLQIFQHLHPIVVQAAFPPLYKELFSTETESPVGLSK
Chain of human RORγt ligand binding domain (RORγt LBD) (P51449 other isoform, or with tags, fused parts or gaps): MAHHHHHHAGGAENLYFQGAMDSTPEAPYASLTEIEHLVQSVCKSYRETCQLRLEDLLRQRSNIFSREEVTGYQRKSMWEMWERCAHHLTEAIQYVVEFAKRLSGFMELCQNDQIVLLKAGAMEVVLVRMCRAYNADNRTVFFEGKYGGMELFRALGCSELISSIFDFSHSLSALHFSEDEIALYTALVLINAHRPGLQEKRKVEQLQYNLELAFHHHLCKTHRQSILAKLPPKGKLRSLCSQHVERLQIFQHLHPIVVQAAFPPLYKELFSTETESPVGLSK

| Structure (SMILES) | pKd [1] | inhibition at 0.22 µM (full-length human RORγt; [2]) [%] | pIC50 (full-length human RORγt) | inhibition at 2 µM (full-length human RORγt; 2 μM compound concentration (**), read-out: RORγt (FL) Reporter Assay A or B, % inhibition) [%] | inhibition at 3 µM (full-length human RORγt; 3 μM compound concentration (*), read-out: RORγt (FL) Reporter Assay A or B, % inhibition) [%] | inhibition at 6 µM (full-length human RORγt) [%] | inhibition at 3 µM (full-length human RORγt; read-out: RORγt (FL) Reporter Assay A or B, % inhibition, 3 μM compound concentration (*)) [%] |
| --- | --- | --- | --- | --- | --- | --- | --- |
| CCc1nc(C(=O)NC[C@H]2CC[C@H](S(C)(=O)=O)CC2)c(Cl)n1-c1c(F)cc(CC(C)C(F)(F)F)cc1F (stereo partly drawn) [Example 85, 5-Chloro-1-(2,6-difluoro-4-(3,3,3-trifluoro-2-methylpropyl)phenyl)-2-ethyl-N-(((1r,4r)-4-(methylsulfonyl)cyclohexyl)methyl)-1H-imidazole-4-carboxamide] | 8.09 | 63 | 7.64 | – | – | – | – |
| CCc1nc(C(=O)NC[C@]2(O)CC[C@@H](S(C)(=O)=O)CC2)cn1-c1ccc(C[C@H](C)C(F)(F)F)cc1OC (single isomer, unassigned) [Example 19, 2-Ethyl-N-(((1s,4R)-1-hydroxy-4-(methylsulfonyl)cyclohexyl)methyl)-1-(2-methoxy-4-((S*)-3,3,3-trifluoro-2-methylpropyl)phenyl)-1H-imidazole-4-carboxamide] | 7.30 | – | 6.44 | 80 | – | – | – |
| CCc1nc(C(=O)NC[C@@]2(O)CC[C@H](S(C)(=O)=O)C[C@@H]2O)c(Cl)n1-c1ncc(CC(C)(C)C(F)(F)F)cc1OC(F)F (stereo in doubt) [Example 61, 5-Chloro-1-(3-(difluoromethoxy)-5-(3,3,3-trifluoro-2,2-dimethylpropyl)pyridin-2-yl)-N-(((1S*,2S*,4S*)-1,2-dihydroxy-4-(methylsulfonyl)cyclohexyl)methyl)-2-ethyl-1H-imidazole-4-carboxamide] | 7.34 | – | 6.96 | – | 90 | – | – |
| CCc1nc(C(=O)NC[C@H]2CC[C@H](S(C)(=O)=O)CC2)c(C#N)n1-c1ccc(CCC(F)(F)F)cc1OC [Example 21, 5-Cyano-2-ethyl-1-(2-methoxy-4-(3,3,3-trifluoropropyl)phenyl)-N-(((1r,4r)-4-(methylsulfonyl)cyclohexyl)methyl)-1H-imidazole-4-carboxamide] | 7.85 | – | 7.03 | – | – | 101 | – |
| CCc1nc(C(=O)NC[C@]2(O)CC[C@@H](S(C)(=O)=O)CC2)c(C)n1-c1ccc(CC(C(F)(F)F)C(F)(F)F)c(F)c1 [Example 106, 2-Ethyl-1-(3-fluoro-4-(3,3,3-trifluoro-2-(trifluoromethyl)propyl)phenyl)-N-(((1s,4s)-1-hydroxy-4-(methylsulfonyl)cyclohexyl)methyl)-5-methyl-1H-imidazole-4-carboxamide] | 7.26 | 40 | 6.77 | – | – | – | – |
| CCc1nc(C(=O)NC[C@@H]2CC[C@@H](S(C)(=O)=O)C[C@H]2O)c(Cl)n1-c1ncc(CC(C)(C)C(F)(F)F)cc1OC(F)F (single isomer, unassigned) [Example 59, 5-Chloro-1-(3-(difluoromethoxy)-5-(3,3,3-trifluoro-2,2-dimethylpropyl)pyridin-2-yl)-2-ethyl-N-(((1S*,2R*,4R*)-2-hydroxy-4-(methylsulfonyl)cyclohexyl)methyl)-1H-imidazole-4-carboxamide] | 7.92 | – | 7.19 | – | – | – | 104 |
| CCc1nc(C(=O)NC[C@H]2CC[C@H](S(C)(=O)=O)CC2)c(F)n1-c1ccc(CCC(F)(F)F)cc1OC [Example 13, 2-Ethyl-5-fluoro-1-(2-methoxy-4-(3,3,3-trifluoropropyl)phenyl)-N-(((1r,4r)-4-(methylsulfonyl)cyclohexyl)methyl)-1H-imidazole-4-carboxamide] | 7.60 | – | 6.85 | – | – | 95 | – |
| CCc1nc(C(=O)NC[C@]2(O)CC[C@@H](S(C)(=O)=O)CC2)c(C#N)n1-c1ncc(CCC(F)(F)F)cc1OC [Example 120, 5-Cyano-2-ethyl-N-(((1s,4s)-1-hydroxy-4-(methylsulfonyl)cyclohexyl)methyl)-1-(3-methoxy-5-(3,3,3-trifluoropropyl)pyridin-2-yl)-1H-imidazole-4-carboxamide] | 6.08 | – | 5.85 | – | – | 57 | – |
| CCc1nc(C(=O)NC[C@H]2CC[C@H](S(C)(=O)=O)CC2)c(F)n1-c1ccc(CC(C)C(F)(F)F)cc1OC (stereo partly drawn) [Example 15, 2-Ethyl-5-fluoro-1-(2-methoxy-4-(3,3,3-trifluoro-2-methylpropyl)phenyl)-N-(((1r,4r)-4-(methylsulfonyl)cyclohexyl)methyl)-1H-imidazole-4-carboxamide] | 8.41 | – | 7.26 | – | – | 103 | – |
